Experimental data: PubChem BioAssay AID1996
≈ marks a conversion by molar mass, not a printed value.

Details: buffer; pH 7.4; 200.0 µM

Structure (SMILES)	solubility kinetic [µg/mL]
CN(C)c1ccc(C(=S)N2CCCC2)cc1Br	44 (≈ 140 µM)
CC(C)[C@H](NC(=O)c1ccccc1F)C(=O)NCCc1ccccc1	26.4 (≈ 77.1 µM)
COc1ccccc1NC(=O)Cn1c([N+](=O)[O-])cnc1C	> 43.5
CC1(C)Cc2c(sc(NC(=O)/C=C/C(=O)O)c2C#N)CO1	41.4 (≈ 135 µM)
O=C(NC(=O)c1cnccc1C(F)(F)F)Nc1ccccc1	18.3 (≈ 59.2 µM)
COc1cc2c(cc1OC)C(c1ccccc1)NCC2 (stereo unspecified)	> 40.4
COC(=O)Nc1ccc(S(=O)(=O)Nc2cnc3ccccc3n2)cc1	> 53.8
O=C(CSCc1c(F)cccc1F)Nc1ccccc1	37.7 (≈ 129 µM)
CN1CCN(CC#CCC2(O)c3ccccc3-c3ccccc32)CC1	42.1 (≈ 127 µM)
O=C(CCNc1cccc(F)c1)c1cc2ccccc2o1	< 0.6
COc1ccc(OC)c(NC(=O)c2ccno2)c1	> 37.2
Cc1cc(C)c(S(=O)(=O)NCCc2ccncc2)c(C)c1	19.7 (≈ 64.7 µM)
O=C(Cc1csc(-c2ccccc2)n1)NCc1ccco1	39.1 (≈ 131 µM)
NC(=O)c1c(NC(=O)c2ccc(F)cc2Cl)sc2c1CCC2	1 (≈ 2.95 µM)
O=C(NC1CCOc2ccccc21)c1ccccn1 (stereo unspecified)	36.1 (≈ 142 µM)
COc1ccccc1C/C(N)=N/OC(=O)c1cccs1	42.8 (≈ 147 µM)
Cc1c(NC(=S)NC(=O)c2ccc(Cl)cc2)c(=O)n(-c2ccccc2)n1C	> 60.1
O=C(NCCCn1ccnc1)C1CCN(S(=O)(=O)c2cc([N+](=O)[O-])ccc2Cl)CC1	> 68.4
O=C(NC1=NCCS1)C1CCCCC1	> 31.8
Cc1c(C(=O)O)[nH]c2c1C(=O)CC(c1ccc(C(C)(C)C)cc1)C2 (stereo unspecified)	> 48.8
COc1ccccc1CNC(=O)CS(=O)(=O)Cc1ccccc1	41.4 (≈ 124 µM)
COCCNc1nnc(Cc2ccccc2)c(=O)[nH]1	> 39

Structure (SMILES)	solubility kinetic [µg/mL]
O=C(Nc1cccc(O)c1)C1CC(c2c(F)cccc2Cl)=NO1 (stereo unspecified)	29.5 (≈ 88.1 µM)
COc1cccc(NC(=O)COC(=O)C2=NN(c3ccccc3)C(=O)CC2)c1	> 57.2
CN(C)/C=C/C(=O)c1ccc(Br)s1	> 39
CCC(C)NC(=O)C(=O)NCC1CCCN1CC (stereo unspecified)	28.8 (≈ 113 µM)
COc1ccc(C(=O)CCC(=O)Nc2cccnc2)cc1	> 42.6
COc1ccc(/C=C/C(=O)Nc2ccncc2)cc1OC	29.8 (≈ 105 µM)
O=C(Nc1ccccc1)C1CC(=O)N(Cc2ccccc2)C1 (stereo unspecified)	> 44.2
CN(C)/C=C/C(=O)c1c(F)cccc1F	31.4 (≈ 149 µM)
CC(=O)c1c(C)[nH]c(C(=O)OCC(=O)c2ccc3c(c2)NC(=O)CO3)c1C	10.5 (≈ 28.4 µM)
CC(C)(C)c1ccc(-c2noc(-c3ccc4c(c3)CCO4)n2)cc1	0.8 (≈ 2.5 µM)
CCN(Cc1nc(-c2ccc(Cl)cc2)no1)CC1CCCO1 (stereo unspecified)	25.8 (≈ 80.2 µM)
COc1ccc(S(=O)(=O)NCc2cccnc2)cc1Br	35.5 (≈ 99.4 µM)
O=C1CC(N2CCSCC2)C(=O)N1c1cccc(Cl)c1 (stereo unspecified)	> 46.6
CCOP(=O)(OCC)C(Nc1ccccc1)c1ccco1 (stereo unspecified)	> 46.4
CN1C(=O)N(C)C2(C)CC1(C)N(C)C(=O)N2C	> 36
O=C(CSc1ccc(-c2cccnc2)nn1)N1CCCCC1	> 47.2
CCn1cc(C(=O)NCCc2ccc(Cl)cc2)c(=O)c2ccc(C)nc21	5.1 (≈ 13.8 µM)
CC(=O)Nc1ccc(NC(=S)NC(=O)C2CCCC2)cc1	> 45.8
NC(=O)c1ccccc1OCCOc1ccc(Br)cc1	5.1 (≈ 15.2 µM)
O=C(NC1CCN(Cc2ccccc2Cl)CC1)c1ccccc1	47.6 (≈ 145 µM)
Cc1ccccc1OCC(=O)OCC(=O)NCc1ccc2c(c1)OCO2	17.3 (≈ 48.4 µM)
NC(=O)COC(=O)c1sc2ccccc2c1Cl	12.4 (≈ 46 µM)

Structure (SMILES)	solubility kinetic [µg/mL]
Cc1cc(N2C(=O)C(O)=C(C(=O)c3cccs3)C2c2ccc(F)cc2)no1 (stereo unspecified)	> 57.7
Nc1nc(C(c2ccccc2)c2ccccc2)cs1	11 (≈ 41.3 µM)
CCOc1ccccc1NC(=O)Nc1ccccn1	< 0.2
CC(=O)c1c(COC(=O)c2ccc(C)cc2)nc2ccccc2[n+]1[O-]	2.7 (≈ 8.03 µM)
CC(C)c1nc(SCC(=O)Nc2cccc3ccccc23)n[nH]1	> 49
CN(C)CCNC(=O)C(=O)Nc1cc2c3c(c1)CCC(=O)N3CCC2	50.9 (≈ 148 µM)
Cn1c(O)c(/C=N/N2CCOCC2)c(=O)n(-c2ccccc2)c1=S	> 52
Cc1ccc(NC(=O)CSc2nc(N)cc(=O)[nH]2)cc1S(=O)(=O)N1CCCCCC1	10.6 (≈ 23.5 µM)
CN1CCN(C(=S)NC(CC(=O)c2ccccc2)c2ccccc2)CC1 (stereo unspecified)	43.2 (≈ 118 µM)
Cc1oncc1C(=O)Nc1cccc(C#N)c1	> 34.1
CC(C)[C@H](NC(=O)c1ccccc1F)C(=O)Nc1ccc(F)c(F)c1	4.9 (≈ 14 µM)
CCc1nc2cccnc2n1-c1ccc(CC(=O)O)cc1	> 42.2
O=C(O)/C(=C/c1ccco1)NC(=O)c1ccc(Br)o1	> 48.9
CCn1c(=O)c(-c2nc3ccccc3[nH]2)c(O)c2ccccc21	< 0.2
Cc1ccc(C(=O)OCC(=O)Nc2cc(C(C)(C)C)no2)c(C)c1	3.1 (≈ 9.38 µM)
O=C1c2ccccc2CN1CCNC(=S)NC1CCCCC1	> 47.6
Cc1cccc(OP(N)(=O)Oc2cccc(C)c2)c1	40.6 (≈ 146 µM)
O=C(Nc1ccc(Cl)c(Cl)c1)Nc1ccon1	1.6 (≈ 5.88 µM)
O=C(Nc1ccccc1F)N1CCCC1c1cccnc1 (stereo unspecified)	40.9 (≈ 143 µM)
CCOc1cc2c(C#N)c(N3CCCCC3)nc(N)c2c(N)n1	10.6 (≈ 33.9 µM)
CC(C)CCNC(=O)C(=O)Nc1cc2c3c(c1)CC(=O)N3CCC2	28.5 (≈ 86.5 µM)
CN(C(=O)COC(=O)C12CC3CC(CC(Cl)(C3)C1)C2)c1ccccc1	21.4 (≈ 59.1 µM)

Structure (SMILES)	solubility kinetic [µg/mL]
CSc1ccc(CNC(C)(C)CO)cc1.Cl	> 39.3
c1csc(-c2noc(CN3CCc4sccc4C3)n2)c1	27.3 (≈ 90 µM)
Cc1ccc2c(c1)/C(=C/c1ccccc1F)C(=O)N2	1.3 (≈ 5.13 µM)
COc1ccc(NC(=O)C#Cc2ccccc2)cc1OC	37.6 (≈ 134 µM)
O=C(CSc1ncnc2ccccc12)NCCc1ccccc1	> 48.5
COc1ccc(C(C)C)cc1S(=O)(=O)NCC1CCCO1 (stereo unspecified)	44.3 (≈ 141 µM)
O=Cc1cnc(N2CCN(c3ccccc3)CC2)s1	> 41
CCn1c(/C=C/c2ccccc2Cl)nc2ccccc2c1=O	1.7 (≈ 5.47 µM)
CC(C)Oc1cccc(C(=O)C2CCCN(C(=O)c3ccoc3)C2)c1 (stereo unspecified)	32.3 (≈ 94.6 µM)
CCOC(=O)CN1C(=O)C(=O)N(Cc2ccccc2)C1=O	> 43.5
CN(c1ccccc1)S(=O)(=O)c1ccc(C(=O)NCc2ccc(F)cc2)cc1	8.1 (≈ 20.3 µM)
O=C(O)c1ccc(CSc2nc3ccccc3[nH]2)cc1	39.2 (≈ 138 µM)
O=C(CSc1ccccn1)N1CCc2ccccc21	3.7 (≈ 13.7 µM)
O=C(CCSCc1ccccc1)Nc1ccc2c(c1)OCCO2	33.8 (≈ 103 µM)
O=C(OCc1ccc([N+](=O)[O-])cc1)c1cc2ccccc2oc1=O	< 0.7
C=CCc1ccccc1OCC(O)CN1CCOCC1 (stereo unspecified)	> 41.6
COc1ccc(OC)c(C(C)NC(=O)C23CC4CC(CC(C4)C2)C3)c1 (stereo unspecified)	0.8 (≈ 2.33 µM)
CSS(=O)(=O)c1cccc2cccnc12	> 35.9
CC(C(=O)N(C)C1CCCCC1)N1CCC(C(N)=O)CC1 (stereo unspecified)	43.1 (≈ 146 µM)
CC(C)(C)S(=O)(=O)c1ccccc1-c1noc(-c2ccccc2)c1C(N)=O	> 57.7
